SMILES strings stand for the structures. Where a name gives a salt, the structure may show the parent alone. Read-outs that look alike come from different tables or passages of the source.

The target in this experiment is T1, human recombinant KDM1A (LSD1)/CoRest (Homo sapiens, UniProt O60341).
T1 construct: made in house; host or cells: E. coli
Nature of the experiment: Assay of enzyme inhibition of KDM1A (LSD1), Amplex UltraRed/peroxidase coupled. The class given is biochemical. The conditions noted are these: 15 min preincubation, 4.5 μM mono-methylated H3-K4 peptide, range classes. The protocol:
The experiments were performed using a mono-methylated H3-K4 peptide containing 21 amino acids (custom synthesis done by Thermo Scientific) as substrate and in a 50 mM TRIS, pH 8, 0.05 mg/ml BSA buffer.
The demethylase activity was estimated under aerobic conditions and at RT by measuring the release of H2O2 produced during the catalytic process by the Amplex® UltraRed detection system coupled with peroxidase assay. Briefly, a fixed amount of KDM1A/CoRest complex was incubated at RT for 15 minutes in the absence and/or the presence of various concentrations of inhibitor (e.g. from 0 to 100 μM, depending on the inhibitor strength) and of Amplex® UltraRed detection system coupled with peroxidase assay. The inhibitors were tested twice in duplicates at each concentration. […] The conversion of the Amplex® Ultra Red reagent to resorufin was monitored in continuous by fluorescence (excitation at 540 nm, emission at 590 nm) using a microplate reader (Infinite 200, Tecan). Arbitrary units were used to measure the level of H2O2 produced in the absence and/or in the presence of inhibition. The maximum demethylase activity of KDM1A/CoRest was obtained in the absence of inhibitors and corrected for background fluorescence in the absence of KDM1A/CoRest. The IC50 was calculated using GraphPad Software.

[1] abbreviates: read-out: IC50 [μM], KDM1A inhibition assay.

The IC50 is the concentration that gives 50% inhibition. For the molecule `CN1CCN(C(=O)CN[C@@]2(C)C[C@H]2c2ccccc2)CC1` (relative stereo) [Example C-28, 2-[[cis-1-methyl-2-phenyl-cyclopropyl]amino]-1-(4-methylpiperazin-1-yl)ethanone dihydrochloride], the IC50 under setting [1] lay in the range of 1 to 5 µM.
Take `N[C@]1(Cc2ccc3ccccc3c2)C[C@H]1c1cccc(Cl)c1` (relative stereo) [Example A-56, trans-2-(3-chlorophenyl)-1-(2-naphthylmethyl)cyclo-propanamine hydrochloride]: under setting [1], the IC50 fell in the range of 0.1 to 1 µM.
Consider `N[C@]1(CNC2CC2)C[C@H]1c1ccccc1` (relative stereo) [Example B-4, trans 1-[(cyclopropylamino)methyl]-2-phenyl-cyclopropanamine dihydrochloride], for which, under setting [1], the IC50 was 1 to 5 µM.
Same read-out and setting: then `CN1CCN(C(=O)CN[C@]2(C)C[C@H]2c2ccccc2)CC1` [Example C-25, 2-[[(1R,2S)-1-methyl-2-phenyl-cyclopropyl]amino]-1-(4-methylpiperazin-1-yl)ethanone 2,2,2-trifluoroacetic acid], with < 0.1 µM; and `COc1ncccc1CN[C@]1(C)C[C@H]1c1ccccc1` (relative stereo) [Example C-20, trans-N-[(2-methoxy-3-pyridyl)methyl]-1-methyl-2-phenyl-cyclopropanamine], with 1 to 5 µM; and `CC[C@@]1(N)C[C@H]1c1ccc(NC(=O)Cc2ccccc2)cc1` (relative stereo) [Example A-39, N-[4-[(trans-2-amino-2-ethyl-cyclopropyl]phenyl]-2-phenyl-acetamide hydrochloride], with < 0.1 µM.
On the same count and under the same terms, then `CC[C@]1(N)C[C@@H]1c1ccc(NC(=O)c2ccc(-c3ccccc3)cc2)cc1` [Example A-128, N-[4-[(1R,2S)-2-amino-2-ethyl-cyclopropyl]phenyl]-4-phenyl-benzamide hydrochloride], with < 0.1 µM; and `N[C@@]1(CCc2ccccc2)C[C@@H]1c1cccc(Br)c1` (relative stereo) [Example A-51, trans 2-(3-bromophenyl)-1-phenethyl-cyclopropanamine hydrochloride], with < 0.1 µM; and `N[C@]1(Cc2ccc3ccccc3c2)C[C@H]1c1ccc(F)cc1` (relative stereo) [Example A-54, trans-2-(4-fluorophenyl)-1-(2-naphthylmethyl)cyclo-propanamine hydrochloride], with 0.1 to 1 µM.
Same read-out and setting: to `CC[C@@]1(N)C[C@H]1c1ccc(NC(=O)c2ccc(C3CCN(C)CC3)cc2)cc1` (relative stereo) [Example A-100, N-[4-[trans-2-amino-2-ethyl-cyclopropyl]phenyl]-4-(1-methyl-4-piperidyl)benzamide 2,2,2-trifluoroacetic acid] belongs < 0.1 µM; to `CC[C@@]1(N)C[C@H]1c1cccc(N2CCN(c3ccccc3)C2=O)c1` (relative stereo) [Example A-130, 1-[3-[(trans-2-amino-2-ethyl-cyclopropyl]phenyl]-3-phenyl-imidazolidin-2-one hydrochloride], 0.1 to 1 µM; to `N[C@]1(c2ccccc2)C[C@H]1c1ccc(NC(=O)Cc2ccccc2)cc1` (relative stereo) [Example A-105, N-[4-(trans-2-amino-2-phenyl-cyclopropyl)phenyl]-2-phenyl-acetamide hydrochloride], < 0.1 µM.
In the case of `CC[C@@]1(N)C[C@H]1c1ccc(C(F)(F)F)cc1` (relative stereo) [Example A-19, trans-1-ethyl-2-[4-(trifluoromethyl)phenyl]cyclo-propanamine hydrochloride], under setting [1], the IC50 fell in the range of 0.1 to 1 µM.
On to `CC[C@@]1(N)C[C@H]1c1ccc(NC(=O)c2ccc(N3CCN(C)CC3)cc2)c(F)c1` (relative stereo) [Example A-96, N-[4-[trans-2-amino-2-ethyl-cyclopropyl]-2-fluoro-phenyl]-4-(4-methylpiperazin-1-yl)benzamide 2,2,2-trifluoroacetic acid], for which the IC50 under setting [1] was in the range of 0.1 to 1 µM.
Consider `CC[C@@]1(N)C[C@H]1c1ccc(NC(=O)c2cccc(-c3ccccc3)c2)cc1` (relative stereo) [Example A-35], for which the IC50 under setting [1] was < 0.1 µM.
The same measure, in the same setting: then `CC[C@@]1(N)C[C@H]1c1cccc(N=[N+]=[N-])c1` (relative stereo) [Example A-49, trans-2-(3-Azidophenyl)-1-ethyl-cyclopropanamine hydrochloride], with < 0.1 µM.
Same read-out and setting: then `CC[C@@]1(NCc2ccccc2)C[C@H]1c1ccccc1` (relative stereo) [Example C-13, trans-N-benzyl-1-ethyl-2-phenyl-cyclopropanamine hydrochloride], with 1 to 5 µM.
As for `CC[C@@]1(N)C[C@H]1c1ccc(Br)c(F)c1` (relative stereo) [Example A-50, trans-2-(4-bromo-3-fluoro-phenyl)-1-ethyl-cyclopropanamine hydrochloride], the IC50 (IC50 [μM], KDM1A inhibition assay) was < 0.1 µM.
As to `COc1cccc([C@@H]2C[C@]2(N)Cc2ccccc2)c1` (relative stereo) [Example A-129, trans 1-Benzyl-2-(3-methoxyphenyl)cyclopropanamine hydrochloride], the IC50 under setting [1] lay within 0.1 to 1 µM.
Take `N[C@]1(c2ccccc2)C[C@H]1c1ccc(NC(=O)c2cccc(-c3ccccc3)c2)cc1` (relative stereo) [Example A-106, N-[4-(trans-2-amino-2-phenyl-cyclopropyl)phenyl]-3-phenyl-benzamide 2,2,2-trifluoroacetic acid]: the IC50 under setting [1] was < 0.1 µM.
Same read-out and setting: to `CN1CCN(C[C@@]2(N)C[C@H]2c2ccccc2)CC1` (relative stereo) [Example B-5, trans-1-[(4-methylpiperazine-1-yl)methyl]-2-phenyl-cyclopropanamine trihydrochloride] belongs 1 to 5 µM.
Still for that read-out and setting: then `CC[C@@]1(N)C[C@H]1c1ccc(F)cc1` (relative stereo) [Example A-16, trans-1-ethyl-2-(4-fluorophenyl)cyclopropanamine hydrochloride], with 1 to 5 µM.
Still for that read-out and setting: then `CC(C)[C@@]1(N)C[C@H]1c1ccccc1` (relative stereo) [Example A-7, trans-1-isopropyl-2-phenyl-cyclopropanamine hydrochloride], with 1 to 5 µM.
On to `N[C@]1(CCc2ccccc2)C[C@H]1c1ccc(F)cc1` (relative stereo) [Example A-59, trans-2-(4-fluorophenyl)-1-phenethyl-cyclopropanamine hydrochloride], for which the IC50 under setting [1] was 0.1 to 1 µM.
The same measure, in the same setting: then `CN1CCC(c2ccc(C(=O)Nc3ccc([C@@H]4C[C@]4(N)c4ccccc4)cc3)cc2)CC1` (relative stereo) [Example A-109, N-[4-(trans-2-amino-2-phenyl-cyclopropyl]phenyl)-4-(1-methyl-4-piperidyl) benzamide dihydrochloride], with < 0.1 µM.
In the case of `N[C@]1(c2ccccc2)C[C@H]1c1ccc(NC(=O)c2ccncc2)cc1` (relative stereo) [Example A-108, N-[4-(trans-2-amino-2-phenyl-ccyclopropyl)phenyl] pyridine-4-carboxamide dihydrochloride], under setting [1], the IC50 was < 0.1 µM.
On the same count and under the same terms, then `N[C@]1(Cc2ccc3ccccc3c2)C[C@H]1c1cccc(Br)c1` (relative stereo) [Example A-57, trans-2-(3-bromophenyl)-1-(2-naphthylmethyl)cyclo-propanamine hydrochloride], with 0.1 to 1 µM.
On the same count and under the same terms, then `CN1CCN(C(=O)CN[C@]2(c3ccccc3)C[C@H]2c2ccccc2)CC1` (relative stereo) [Example C-23, 2-[[trans-1,2-diphenylcyclopropyl]amino]-1-(4-methylpiperazin-1-yl)ethanone dihydrochloride], with 0.1 to 1 µM.
Same read-out and setting: then `CC[C@@]1(N)C[C@H]1c1ccc(Cl)cc1` (relative stereo) [Example A-17, trans-1-ethyl-2-(4-chlorophenyl)cyclopropanamine; hydrochloride], with 0.1 to 1 µM; and `CN1CCN(C(=O)CN[C@]2(C)C[C@@H]2c2ccccc2)CC1` [Example C-26, 2-[[(1R,2R)-1-methyl-2-phenyl-cyclopropyl]amino]-1-(4-methylpiperazin-1-yl)ethanone 2,2,2-trifluoroacetic acid], with 1 to 5 µM.
With `CC[C@@]1(N)C[C@H]1c1ccc(NC(=O)c2ccc(-c3ccncc3)cc2)cc1` (relative stereo) [Example A-102, N-[4-(trans-2-amino-2-ethyl-cyclopropyl]phenyl)-4-(4-pyridyl) benzamide dihydrochloride], the IC50 under setting [1] was < 0.1 µM.
Turning to `N[C@]1(CCc2ccccc2)C[C@H]1c1ccc(Cl)cc1` (relative stereo) [Example A-58, trans-2-(4-chlorophenyl)-1-phenethyl-cyclopropanamine hydrochloride], the IC50 under setting [1] was < 0.1 µM.
As for `CC[C@@]1(N)C[C@H]1c1ccccc1-n1cc(-c2ccccc2)nn1` (relative stereo) [Example A-125, trans 1-ethyl-2-[2-(4-phenyltriazol-1-yl)phenyl]cyclopropan amine hydrochloride], the IC50 under setting [1] was in the range of 0.1 to 1 µM.

These data come from patent publication US9944589B2, “Cycloproplyamine derivatives useful as inhibitors of histone demethylases KDM1A” (Istituto Europeo de Oncologia S.r.L., priority 2012, dated 2018).
